{"source": "the Kinase Knowledgebase extract (Sharma et al. 2016)", "target": "EGFR (UniProt P00533)", "sequence (P00533 whole entry, looked up)": "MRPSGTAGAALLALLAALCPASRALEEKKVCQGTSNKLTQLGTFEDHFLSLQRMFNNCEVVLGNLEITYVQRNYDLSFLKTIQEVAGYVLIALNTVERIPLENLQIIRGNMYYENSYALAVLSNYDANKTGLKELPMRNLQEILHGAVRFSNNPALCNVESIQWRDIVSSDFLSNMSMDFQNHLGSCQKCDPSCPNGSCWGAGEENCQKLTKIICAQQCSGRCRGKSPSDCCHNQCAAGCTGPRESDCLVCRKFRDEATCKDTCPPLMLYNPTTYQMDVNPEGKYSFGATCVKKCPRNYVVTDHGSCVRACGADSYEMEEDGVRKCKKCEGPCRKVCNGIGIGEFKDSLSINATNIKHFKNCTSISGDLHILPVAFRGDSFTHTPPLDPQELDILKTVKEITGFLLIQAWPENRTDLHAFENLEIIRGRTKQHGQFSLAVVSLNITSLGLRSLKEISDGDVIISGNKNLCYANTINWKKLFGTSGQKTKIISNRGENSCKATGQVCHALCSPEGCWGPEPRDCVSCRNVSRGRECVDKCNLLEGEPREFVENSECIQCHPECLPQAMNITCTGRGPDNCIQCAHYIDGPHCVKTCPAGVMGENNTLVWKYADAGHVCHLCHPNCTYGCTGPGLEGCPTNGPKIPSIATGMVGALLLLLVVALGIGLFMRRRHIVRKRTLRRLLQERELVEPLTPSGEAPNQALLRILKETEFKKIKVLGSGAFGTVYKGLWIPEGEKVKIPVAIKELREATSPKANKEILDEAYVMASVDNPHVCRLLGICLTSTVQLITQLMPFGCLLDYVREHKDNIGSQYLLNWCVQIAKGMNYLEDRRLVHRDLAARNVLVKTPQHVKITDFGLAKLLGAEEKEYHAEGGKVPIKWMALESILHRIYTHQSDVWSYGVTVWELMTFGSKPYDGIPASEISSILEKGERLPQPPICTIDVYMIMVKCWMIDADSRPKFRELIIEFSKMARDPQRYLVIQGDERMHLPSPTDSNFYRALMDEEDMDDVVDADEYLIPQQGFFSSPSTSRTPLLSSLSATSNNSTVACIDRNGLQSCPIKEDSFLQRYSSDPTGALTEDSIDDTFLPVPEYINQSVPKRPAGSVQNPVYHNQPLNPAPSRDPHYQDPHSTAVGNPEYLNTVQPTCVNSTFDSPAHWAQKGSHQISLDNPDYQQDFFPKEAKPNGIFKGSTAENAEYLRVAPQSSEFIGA", "experiment": "Inhibition of EGFR Kinase Activity", "note": "pIC50: −log10 of the molar value.", "data": [{"smiles": "C=CC(=O)Nc1ccc(Nc2ncnc(N(CC)c3cccc(CC(=O)OC)c3)n2)cc1", "values": [{"measurement": "pIC50", "result": "> 4.30"}]}, {"smiles": "C=CCN(c1ccc(OC)c(OCCOC)c1)c1ncnc(Nc2ccc(NC(=O)C=C)cc2)n1", "values": [{"measurement": "pIC50", "result": "> 4.30"}]}, {"smiles": "C=CC(=O)Nc1cccc(Nc2ncnc(N(CC)c3cccc(C)c3)n2)c1", "values": [{"measurement": "pIC50", "result": "> 4.30"}]}, {"smiles": "C=CC(=O)Nc1ccc(Nc2ncnc(N(CC)c3cccc(Cl)c3)n2)cc1", "values": [{"measurement": "pIC50", "result": "> 4.30"}]}, {"smiles": "CC#CC(=O)Nc1cccc(Nc2ncnc(N(CC)c3cc(Cl)cc4ccccc34)n2)c1", "values": [{"measurement": "pIC50", "result": "> 4.30"}]}, {"smiles": "C=CC(=O)Nc1ccc(Nc2ncnc(Nc3ccc4c(ccn4Cc4ccccc4)c3)n2)cc1", "values": [{"measurement": "pIC50", "result": "> 4.30"}]}, {"smiles": "C=CCN(c1cccc(C(N)=O)c1)c1ncnc(Nc2cccc(NC(=O)C=C)c2)n1", "values": [{"measurement": "pIC50", "result": "> 4.30"}]}, {"smiles": "C=CC(=O)Nc1cccc(Nc2ncnc(Nc3ccc(OCCC)c(OCCC)c3)n2)c1", "values": [{"measurement": "pIC50", "result": "> 4.30"}]}, {"smiles": "CC#CC(=O)Nc1cccc(Nc2ncnc(Nc3cccc(Cl)c3)n2)c1", "values": [{"measurement": "pIC50", "result": "> 4.30"}]}, {"smiles": "C=CC(=O)Nc1cccc(Nc2ncnc(NN3CCCc4cc(Cl)ccc43)n2)c1", "values": [{"measurement": "pIC50", "result": "> 4.30"}]}, {"smiles": "C=CC(=O)Nc1ccc(Nc2ncnc(N(C)c3ccc(OCCO)cc3)n2)cc1", "values": [{"measurement": "pIC50", "result": "> 4.30"}]}, {"smiles": "CC#CC(=O)Nc1cccc(Nc2ncnc(N(C)c3cccc(CC(=O)OC)c3)n2)c1", "values": [{"measurement": "pIC50", "result": "> 4.30"}]}, {"smiles": "C=C/C=C/C(=O)Nc1cccc(Nc2ncnc(Nc3ccc4c(ccn4Cc4ccccc4)c3)n2)c1", "values": [{"measurement": "pIC50", "result": "> 4.30"}]}, {"smiles": "C=CC(=O)Nc1cc(Nc2ncnc(NN3CCCc4ccc(Cl)cc43)n2)ccc1OCCCN1CCOCC1", "values": [{"measurement": "pIC50", "result": "> 4.30"}]}, {"smiles": "C=CCN(c1cccc(S(=O)(=O)c2ccc([N+](=O)[O-])cc2)c1)c1ncnc(Nc2ccc(NC(=O)C=C)cc2)n1", "values": [{"measurement": "pIC50", "result": "> 4.30"}]}, {"smiles": "C=CC(=O)Nc1cccc(Nc2ncnc(N(CC)C3CC3c3ccccc3)n2)c1", "note": "(stereo not drawn)", "values": [{"measurement": "pIC50", "result": "> 4.30"}]}, {"smiles": "C=CCN(c1cccc(C(N)=O)c1)c1ncnc(Nc2cccc(NC(=O)C#CC)c2)n1", "values": [{"measurement": "pIC50", "result": "> 4.30"}]}, {"smiles": "C=CC(=O)Nc1ccc(Nc2ncnc(NC3CC3c3ccc(Cl)cc3)n2)cc1", "note": "(stereo not drawn)", "values": [{"measurement": "pIC50", "result": "> 4.30"}]}, {"smiles": "C=CC(=O)Nc1ccc(Nc2ncnc(N(C)c3cc(Cl)ccc3C)n2)cc1", "values": [{"measurement": "pIC50", "result": "> 4.30"}]}, {"smiles": "C=CC(=O)Nc1ccc(Nc2ncnc(N(CC)C3CC3c3ccccc3)n2)cc1", "note": "(stereo not drawn)", "values": [{"measurement": "pIC50", "result": "> 4.30"}]}, {"smiles": "CC#CC(=O)Nc1cc(Nc2ncnc(N(C)c3ccc(OCc4ccccc4)c(Cl)c3)n2)ccc1OCCCN1CCOCC1", "values": [{"measurement": "pIC50", "result": "> 4.30"}]}, {"smiles": "C=CCN(c1cccc(CC(=O)OC)c1)c1ncnc(Nc2cccc(NC(=O)C=C)c2)n1", "values": [{"measurement": "pIC50", "result": "> 4.30"}]}, {"smiles": "CC#CC(=O)Nc1cc(Nc2ncnc(Nc3cccc(Cl)c3)n2)ccc1OCCCC1CCN(C)CC1", "values": [{"measurement": "pIC50", "result": "> 4.30"}]}, {"smiles": "CC#CC(=O)Nc1cccc(Nc2ncnc(N(CC)c3ccc(OCCC)c(OCCC)c3)n2)c1", "values": [{"measurement": "pIC50", "result": "> 4.30"}]}, {"smiles": "C=CC(=O)Nc1ccc(Nc2ncnc(N(CC)c3ccc(OCC)c(OCC)c3)n2)cc1", "values": [{"measurement": "pIC50", "result": "> 4.30"}]}, {"smiles": "CC#CC(=O)Nc1cccc(Nc2ncnc(N(CC)c3cccc(S(=O)(=O)c4ccc([N+](=O)[O-])cc4)c3)n2)c1", "values": [{"measurement": "pIC50", "result": "> 4.30"}]}, {"smiles": "CC#CC(=O)Nc1cccc(Nc2ncnc(N(C)c3ccc4c(cnn4Cc4ccccc4)c3)n2)c1", "values": [{"measurement": "pIC50", "result": "> 4.30"}]}, {"smiles": "C=CC(=O)Nc1cc(Nc2ncnc(N(C)c3cccc(Cl)c3)n2)ccc1OCCCN1CCOCC1", "values": [{"measurement": "pIC50", "result": "> 4.30"}]}, {"smiles": "C=CC(=O)Nc1ccc(Nc2ncnc(Nc3cccc(Cl)c3)n2)cc1", "values": [{"measurement": "pIC50", "result": "> 4.30"}]}, {"smiles": "CC#CC(=O)Nc1cc(Nc2ncnc(N(C)c3ccc4c(ccn4Cc4ccccc4)c3)n2)ccc1OCCCC1CCN(C)CC1", "values": [{"measurement": "pIC50", "result": "> 4.30"}]}, {"smiles": "C=CCN(c1ccc(C(=O)OC)cc1)c1ncnc(Nc2cccc(NC(=O)C=C)c2)n1", "values": [{"measurement": "pIC50", "result": "> 4.30"}]}, {"smiles": "C=CC(=O)Nc1cccc(Nc2ncnc(N(C)c3cc(Cl)ccc3C)n2)c1", "values": [{"measurement": "pIC50", "result": "> 4.30"}]}, {"smiles": "C=CCN(c1ncnc(Nc2cccc(NC(=O)C#CC)c2)n1)c1cc(Cl)cc2ccccc12", "values": [{"measurement": "pIC50", "result": "> 4.30"}]}, {"smiles": "C=CC(=O)N(CCCN1CCOCC1)c1cccc(Nc2ncnc(Nc3cc(Cl)cc4ccccc34)n2)c1", "values": [{"measurement": "pIC50", "result": "> 4.30"}]}, {"smiles": "C=CCN(c1ccc(OCCC)c(OCCC)c1)c1ncnc(Nc2cccc(NC(=O)C#CC)c2)n1", "values": [{"measurement": "pIC50", "result": "> 4.30"}]}, {"smiles": "C=CC(=O)Nc1ccc(Nc2ncnc(Nc3cccc(CC(=O)OC)c3)n2)cc1", "values": [{"measurement": "pIC50", "result": "> 4.30"}]}, {"smiles": "CC#CC(=O)Nc1cccc(Nc2ncnc(N(C)c3ccc(F)c(Cl)c3)n2)c1", "values": [{"measurement": "pIC50", "result": "> 4.30"}]}, {"smiles": "C=CC(=O)Nc1cccc(Nc2ncnc(Nc3ccc4c(cnn4Cc4ccccc4)c3)n2)c1", "values": [{"measurement": "pIC50", "result": "> 4.30"}]}, {"smiles": "CC#CC(=O)Nc1cccc(Nc2ncnc(N(CC)n3c(=O)n(C(=O)C(C)(C)C)c4ccccc43)n2)c1", "values": [{"measurement": "pIC50", "result": "> 4.30"}]}, {"smiles": "C=CC(=O)Nc1cccc(Nc2ncnc(Nc3cc(Cl)ccc3C)n2)c1", "values": [{"measurement": "pIC50", "result": "> 4.30"}]}, {"smiles": "C=CC(=O)Nc1ccc(Nc2ncnc(Nc3ccc4c(cnn4Cc4ccccc4)c3)n2)cc1OC", "values": [{"measurement": "pIC50", "result": "> 4.30"}]}, {"smiles": "C=CC(=O)Nc1cccc(Nc2ncnc(N(C)c3ccc4c(cnn4Cc4ccccn4)c3)n2)c1", "values": [{"measurement": "pIC50", "result": "> 4.30"}]}, {"smiles": "C=CC(=O)Nc1cccc(Nc2ncnc(Nc3ccc(OCc4cccc(F)c4)cc3)n2)c1", "values": [{"measurement": "pIC50", "result": "> 4.30"}]}, {"smiles": "C=CCN(c1ccc(OCC)c(OCC)c1)c1ncnc(Nc2cccc(NC(=O)C#CC)c2)n1", "values": [{"measurement": "pIC50", "result": "> 4.30"}]}, {"smiles": "C=CC(=O)N1CCc2cc(Nc3ncnc(Nc4ccc5c(cnn5Cc5ccccc5)c4)n3)ccc21", "values": [{"measurement": "pIC50", "result": "> 4.30"}]}, {"smiles": "CC#CC(=O)Nc1cccc(Nc2ncnc(NC3CC3c3ccc(Cl)cc3)n2)c1", "note": "(stereo not drawn)", "values": [{"measurement": "pIC50", "result": "> 4.30"}]}, {"smiles": "C=CC(=O)n1ncc2cc(Nc3ncnc(Nc4ccc5c(cnn5Cc5ccccc5)c4)n3)ccc21", "values": [{"measurement": "pIC50", "result": "> 4.30"}]}, {"smiles": "C=CC(=O)Nc1cccc(Nc2ncnc(N(CC)c3ccc(OCCO)cc3)n2)c1", "values": [{"measurement": "pIC50", "result": "> 4.30"}]}, {"smiles": "CC#CC(=O)Nc1cccc(Nc2ncnc(Nc3ccc(OC)c(OCCOC)c3)n2)c1", "values": [{"measurement": "pIC50", "result": "> 4.30"}]}, {"smiles": "C=CC(=O)Nc1cccc(Nc2ncnc(N(CC)c3cccc(C(N)=O)c3)n2)c1", "values": [{"measurement": "pIC50", "result": "> 4.30"}]}, {"smiles": "C=CC(=O)Nc1cccc(Nc2ncnc(Nc3cccc(S(=O)(=O)c4ccc([N+](=O)[O-])cc4)c3)n2)c1", "values": [{"measurement": "pIC50", "result": "> 4.30"}]}, {"smiles": "C=CCN(c1ncnc(Nc2cccc(NC(=O)C#CC)c2)n1)C1CC1c1ccc(Cl)cc1", "note": "(stereo not drawn)", "values": [{"measurement": "pIC50", "result": "> 4.30"}]}, {"smiles": "C=CC(=O)Nc1cccc(Nc2ncnc(N(C)c3ccc(OCc4ccccc4)c(Cl)c3)n2)c1", "values": [{"measurement": "pIC50", "result": "> 4.30"}]}, {"smiles": "CC#CC(=O)Nc1cccc(Nc2ncnc(Nc3ccc4NN(=Cc4c3)Cc5ccccn5)n2)c1", "values": [{"measurement": "pIC50", "result": "> 4.30"}]}, {"smiles": "C=CC(=O)Nc1ccc(Nc2ncnc(N(C)n3c(=O)[nH]c4ccccc43)n2)cc1", "values": [{"measurement": "pIC50", "result": "> 4.30"}]}, {"smiles": "C=CC(=O)Nc1ccc(Nc2ncnc(Nc3cccc(C)c3)n2)cc1", "values": [{"measurement": "pIC50", "result": "> 4.30"}]}, {"smiles": "CC#CC(=O)Nc1cccc(Nc2ncnc(N(C)n3c(=O)n(C(=O)C(C)(C)C)c4ccccc43)n2)c1", "values": [{"measurement": "pIC50", "result": "> 4.30"}]}, {"smiles": "C=CCN(c1ccc(OCC)c(OCC)c1)c1ncnc(Nc2cccc(NC(=O)C=C)c2)n1", "values": [{"measurement": "pIC50", "result": "> 4.30"}]}, {"smiles": "C=CC(=O)Nc1ccc(Nc2ncnc(N(C)n3c(=O)n(C(=O)C(C)(C)C)c4ccccc43)n2)cc1", "values": [{"measurement": "pIC50", "result": "> 4.30"}]}, {"smiles": "C=CCN(c1cccc(C)c1)c1ncnc(Nc2cccc(NC(=O)C=C)c2)n1", "values": [{"measurement": "pIC50", "result": "> 4.30"}]}, {"smiles": "C=CC(=O)Nc1cc(Nc2ncnc(Nc3ccc4c(ccn4Cc4ccccc4)c3)n2)ccc1OCCCC1CCN(C)CC1", "values": [{"measurement": "pIC50", "result": "> 4.30"}]}, {"smiles": "C=CC(=O)Nc1cccc(Nc2ncnc(N(CC)n3c(=O)n(C(=O)C(C)(C)C)c4ccccc43)n2)c1", "values": [{"measurement": "pIC50", "result": "> 4.30"}]}, {"smiles": "C/C=C/C(=O)Nc1cccc(Nc2ncnc(Nc3ccc4c(ccn4Cc4ccccc4)c3)n2)c1", "values": [{"measurement": "pIC50", "result": "> 4.30"}]}, {"smiles": "CC#CC(=O)Nc1cccc(Nc2ncnc(N(CC)c3ccc4c(cnn4Cc4ccccc4)c3)n2)c1", "values": [{"measurement": "pIC50", "result": "> 4.30"}]}, {"smiles": "C=CC(=O)Nc1cccc(Nc2ncnc(Nc3ccc(OCc4ccccc4)c(Cl)c3)n2)c1", "values": [{"measurement": "pIC50", "result": "> 4.30"}]}, {"smiles": "C=CC(=O)Nc1cccc(Nc2ncnc(N(C)c3ccc(C(=O)OC)cc3)n2)c1", "values": [{"measurement": "pIC50", "result": "> 4.30"}]}, {"smiles": "C=CC(=O)Nc1ccc(Nc2ncnc(N(CC)c3cc(OC)c(OC)c(OCCN4CCOCC4)c3)n2)cc1", "values": [{"measurement": "pIC50", "result": "> 4.30"}]}, {"smiles": "C=CC(=O)Nc1ccc(Nc2ncnc(N(C)c3ccc(OC)c(OC)c3)n2)cc1", "values": [{"measurement": "pIC50", "result": "> 4.30"}]}]}
